Paper PMC10818931, “In Vitro Evaluation of Drug–Drug Interaction Potential of Epetraborole, a Novel Bacterial Leucyl-tRNA Synthetase Inhibitor” (Pharmaceuticals, 2024)
Read-outs that look alike come from different tables or passages of the source.

Tests used:
Type in all cases: in vitro ADME
BCRP [1] = target: T1, BCRP (Homo sapiens, UniProt Q9UNQ0); assay: Inhibition of BCRP-mediated efflux transport in BCRP-MDCK cells
T1 construct: host or cells: MDCK (BCRP-MDCK)
T1 sequence (Q9UNQ0 1-655): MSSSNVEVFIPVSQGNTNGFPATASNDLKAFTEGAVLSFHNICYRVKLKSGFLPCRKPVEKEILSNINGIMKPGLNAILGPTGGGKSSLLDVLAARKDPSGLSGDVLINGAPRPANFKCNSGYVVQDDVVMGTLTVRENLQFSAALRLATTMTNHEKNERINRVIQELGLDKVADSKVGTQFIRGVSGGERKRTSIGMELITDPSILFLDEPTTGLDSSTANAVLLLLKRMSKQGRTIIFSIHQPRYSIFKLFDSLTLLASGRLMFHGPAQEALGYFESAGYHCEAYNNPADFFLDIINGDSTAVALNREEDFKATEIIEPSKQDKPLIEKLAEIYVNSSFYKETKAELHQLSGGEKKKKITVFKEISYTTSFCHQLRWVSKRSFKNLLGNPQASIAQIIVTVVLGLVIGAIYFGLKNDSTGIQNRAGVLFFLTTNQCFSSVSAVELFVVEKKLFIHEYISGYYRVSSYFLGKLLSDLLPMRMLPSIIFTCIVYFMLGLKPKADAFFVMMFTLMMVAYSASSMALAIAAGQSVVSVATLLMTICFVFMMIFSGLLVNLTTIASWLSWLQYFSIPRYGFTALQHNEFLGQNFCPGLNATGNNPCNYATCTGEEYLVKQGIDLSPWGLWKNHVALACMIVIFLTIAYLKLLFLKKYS
Method: A preincubation with EBO or known inhibitor was performed on both sides to preload the cells. After 30 min, the preincubation solution was aspirated. Aliquots of fresh dosing solution with or without EBO or known inhibitor (0.55 mL for AP-to-BL, 1.55 mL for BL-to-AP) were added to the donor compartment, and HBSSg_7.4 with or without EBO or known inhibitor (1.5 mL for AP-to-BL, 0.5 mL for BL-to-AP) were added to the receiver compartment. Receiver samples (200 µL) and donor samples (50 µL) were taken at preselected time points.
Cell monolayer integrity was examined using lucifer yellow (excitation 450 nm and emission 538 nm). The concentrations of the probe substrate in the donor and receiver samples, as well as EBO in dosing solutions, were determined by LC-MS/MS.

BCRP [2] = target: T1, BCRP; assay: Substrate potential for BCRP, bidirectional permeability in BCRP-MDCK; details: for Concentration in the receiver compartment: 5 µM, BCRP-MDCK and MDCK cells, A to B and B to A, Papp and efflux ratio could not be calculated; for as a Substrate: BCRP
CYP3A4/5 = assay: CYP inhibition (direct and metabolism-dependent) in human hepatic microsomes; details: for MDI IC50 Fold Change: metabolism-dependent inhibition; for IC50: read-out: as an Inhibitor IC50
Method: (§1) The direct inhibitory potential of EBO on cytochrome P450 activities O-deethylase (CYP1A2), bupropion hydroxylase (CYP2B6), amodiaquine N-deethylase (CYP2C8), diclofenac 4′-hydroxylase (CYP2C9), S-mephenytoin 4′-hydroxylase (CYP2C19), bufuralol 1′-hydroxylase (CYP2D6), chlorzoxazone 6-hydroxylase (CYP2E1), testosterone 6β-hydroxylase (CYP3A), and midazolam 1′-hydroxylase (CYP3A) was assessed in vitro using human hepatic microsomes according to Covance Laboratory (Madison, WI, USA) SOP. A single substrate concentration was used, approximating the concentration of substrate that gives half the maximum reaction velocity (Km) for human hepatic microsomes for each cytochrome P450 activity. […] All sample and control incubations were performed in triplicate and were analyzed by LC-MS/MS. Incubation mixtures contained microsomal protein and substrate in a 0.1 M potassium phosphate buffer (pH 7.4) containing 1 mM EDTA (assay buffer). […] Incubations were terminated by the addition of 100 µL of an internal standard solution followed by vortex mixing. Protein was removed by centrifugation at 1500× g for 5 min at 4 °C, and supernatants were transferred to a separate plate and stored at 4 °C prior to LC-MS/MS analysis. The analyte for each activity assay was quantitated by comparison to a linear curve of an authentic standard prepared using human microsomal protein. […] Incubations were performed at substrate concentrations approximating the average Km values. […] For determination of control activities, NADPH was added after the addition of each substrate. Samples were then processed as previously described. […] Two sets of duplicate incubations were prepared (cofactor preincubation [50 µL] and control preincubation [50 µL]) with each concentration of M3. All incubations contained a final microsomal protein concentration of 0.1 mg/mL. In this study, M3 and microsomes were preincubated with cofactor for 20 min prior to initiation of reaction by addition of probe substrate. The corresponding control incubations were designed to provide a preincubation without cofactor while incorporating the 20 min preincubation of M3 with microsomes to ensure consistent equilibration of M3 in both control and cofactor preincubations. The control preincubations were therefore performed for 20 min with M3, microsomes, and probe substrate, and the reaction was initiated by the addition of a cofactor solution. […] Incubations without cofactor (at the highest concentration of M3) were performed to determine any cofactor-independent substrate metabolism formation. Probe substrate concentrations were determined by LC/MS/MS methods.

CYP3A4 = assay: as above; details: for MDI IC50 Fold Change / IC50: CYP3A4 (Testosterone); for MDI IC50 Fold Change: metabolism-dependent inhibition; for IC50: human, read-out: as an Inhibitor IC50
Method: as §1

CYP2C9 = target: T2, CYP2C9 (Homo sapiens, UniProt P11712); assay: as above; details: for MDI IC50 Fold Change: metabolism-dependent inhibition; for IC50: read-out: as an Inhibitor IC50
T2 construct: tissue CellzDirect; XenoTech LLC; host or cells: pooled human liver microsomes
T2 sequence (P11712 whole entry): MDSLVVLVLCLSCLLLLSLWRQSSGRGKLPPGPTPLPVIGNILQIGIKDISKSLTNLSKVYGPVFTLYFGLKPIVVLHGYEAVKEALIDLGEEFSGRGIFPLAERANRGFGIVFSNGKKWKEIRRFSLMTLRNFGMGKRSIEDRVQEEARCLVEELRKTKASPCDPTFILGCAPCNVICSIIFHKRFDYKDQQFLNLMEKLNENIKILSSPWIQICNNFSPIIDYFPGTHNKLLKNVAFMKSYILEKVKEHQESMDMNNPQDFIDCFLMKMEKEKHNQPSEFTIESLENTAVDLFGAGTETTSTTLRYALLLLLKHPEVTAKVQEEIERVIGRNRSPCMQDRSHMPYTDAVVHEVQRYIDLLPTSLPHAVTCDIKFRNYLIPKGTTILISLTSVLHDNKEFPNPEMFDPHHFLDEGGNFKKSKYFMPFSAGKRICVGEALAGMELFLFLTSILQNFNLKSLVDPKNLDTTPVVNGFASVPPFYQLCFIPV
Method: as §1

CYP2D6 = target: T3, CYP2D6 (Homo sapiens, UniProt P10635); assay: as above; details: for MDI IC50 Fold Change: metabolism-dependent inhibition; for IC50: read-out: as an Inhibitor IC50
T3 construct: Characterized, pooled, human hepatic microsomes from 15 individuals; tissue CellzDirect (Durham, NC, USA) or XenoTech LLC (Lenexa, KS, USA); host or cells: pooled human liver microsomes (15 donors)
T3 sequence (P10635 whole entry): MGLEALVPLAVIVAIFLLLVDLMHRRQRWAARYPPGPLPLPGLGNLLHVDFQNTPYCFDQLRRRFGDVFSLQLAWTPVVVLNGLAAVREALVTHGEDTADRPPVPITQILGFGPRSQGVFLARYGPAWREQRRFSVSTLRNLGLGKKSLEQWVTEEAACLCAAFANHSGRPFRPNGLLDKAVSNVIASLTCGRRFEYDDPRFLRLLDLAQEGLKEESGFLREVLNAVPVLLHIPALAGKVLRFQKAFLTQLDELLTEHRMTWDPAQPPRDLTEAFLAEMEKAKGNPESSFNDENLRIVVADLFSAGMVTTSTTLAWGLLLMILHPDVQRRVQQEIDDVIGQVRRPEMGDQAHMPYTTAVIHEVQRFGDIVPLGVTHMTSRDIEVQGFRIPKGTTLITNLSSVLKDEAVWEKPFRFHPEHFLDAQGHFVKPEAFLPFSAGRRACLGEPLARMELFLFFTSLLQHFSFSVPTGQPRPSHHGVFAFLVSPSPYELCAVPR
Method: as §1

Q: Which inhibition at 300 µM (BCRP [1]; human, BCRP-MDCK cells, pH 7.4, at 300 μM) does the source give for `NC[C@H]1OB(O)c2c(OCCCO)cccc21` [EBO, Epetraborole] here?
A: 13%

Q: And the inhibition at 1000 µM (BCRP [1]; human, BCRP-MDCK cells, pH 7.4, at 1000 µM)?
A: 27%

Q: And the “Concentration in the receiver compartment” value (BCRP [2])?
A: below the lower limit of quantification

Q: And the “as a Substrate” value (BCRP [2])?
A: No

Q: What about the “MDI IC50 Fold Change” value (CYP3A4/5; CYP3A4/5 (Midazolam)) of the same compound?
A: No

Q: What about the IC50 (CYP3A4/5; human, human hepatic (liver) microsomes, pH 7.4, probe midazolam (1′-hydroxylation), CYP3A4/5 (Midazolam)) of the same compound?
A: > 100 µM

Q: What about the “MDI IC50 Fold Change” value (CYP3A4) of the same compound?
A: No

Q: And the IC50 (CYP3A4; human hepatic (liver) microsomes, pH 7.4, probe testosterone (6β-hydroxylation))?
A: > 100 µM

Q: And the “MDI IC50 Fold Change” value (CYP2C9)?
A: No

Q: And the IC50 (CYP2C9)?
A: > 100 µM

Q: What about the “MDI IC50 Fold Change” value (CYP2D6) of the same compound?
A: No

Q: What about the IC50 (CYP2D6) of the same compound?
A: > 100 µM

Q: With `NC[C@H]1OB(O)c2c(OCCC(=O)O)cccc21` [M3] as the compound, how does the inhibition at 500 µM (BCRP [1]; human, BCRP-MDCK cells, pH 7.4, at 500 μM) read?
A: 44%

Q: And the IC50 (BCRP [1]; read-out: as an Inhibitor, IC50)?
A: > 500 µM

Q: And the “Concentration in the receiver compartment” value (BCRP [2])?
A: below the lower limit of quantification

Q: And the “as a Substrate” value (BCRP [2])?
A: No

Q: And the “MDI IC50 Fold Change” value (CYP3A4/5; CYP3A4/5 (Atorvastatin))?
A: No

Q: What about the IC50 (CYP3A4/5; CYP3A4/5 (Atorvastatin)) of the same compound?
A: > 1000 µM

Q: And the “MDI IC50 Fold Change” value (CYP3A4/5; CYP3A4/5 (Midazolam))?
A: No

Q: And the IC50 (CYP3A4/5; human, microsomes, pH 7.4, CYP3A4/5 (Midazolam))?
A: > 1000 µM

Q: What about the “Direct or time-dependent inhibitory activity (in words)” value (CYP3A4; CYP3A4) of the same compound?
A: No direct or time-dependent inhibitory activity

Q: What about the “MDI IC50 Fold Change” value (CYP3A4) of the same compound?
A: No

Q: And the IC50 (CYP3A4; microsomes, pH 7.4)?
A: > 1000 µM

Q: And the “Direct or time-dependent inhibitory activity (in words)” value (CYP2C9)?
A: No direct or time-dependent inhibitory activity

Q: And the “MDI IC50 Fold Change” value (CYP2C9)?
A: No

Q: And the IC50 (CYP2C9)?
A: > 1000 µM

Q: What about the “Direct or time-dependent inhibitory activity (in words)” value (CYP2D6) of the same compound?
A: No direct or time-dependent inhibitory activity

Q: What about the “MDI IC50 Fold Change” value (CYP2D6) of the same compound?
A: No

Q: What about the IC50 (CYP2D6) of the same compound?
A: > 1000 µM
